Measured values as given in the NIST ThermoML archive (doi:10.1016/j.jct.2005.09.003).
± gives the expanded uncertainty stated by the source.

Test: xn = mol fraction of the nth substance listed
Details: Liquid, x1 = 1

## CCCCCCCC [octane] + CCCCCCCl
298.15 K, 100 kPa
  mass density: 698.64 ± 0.61 kg/m3
298.15 K, 2130 kPa
  mass density: 700.14 ± 0.71 kg/m3
298.15 K, 4150 kPa
  mass density: 701.87 ± 0.8 kg/m3
298.15 K, 6180 kPa
  mass density: 703.56 ± 0.88 kg/m3
298.15 K, 8210 kPa
  mass density: 705.17 ± 0.97 kg/m3
298.15 K, 10230 kPa
  mass density: 706.78 ± 1.1 kg/m3
298.15 K, 11250 kPa
  mass density: 707.58 ± 1.1 kg/m3
298.15 K, 12260 kPa
  mass density: 708.37 ± 1.1 kg/m3
298.15 K, 14290 kPa
  mass density: 709.9 ± 1.2 kg/m3
298.15 K, 16310 kPa
  mass density: 711.41 ± 1.3 kg/m3
298.15 K, 18340 kPa
  mass density: 712.9 ± 1.4 kg/m3
298.15 K, 20370 kPa
  mass density: 714.36 ± 1.5 kg/m3
298.15 K, 22390 kPa
  mass density: 715.78 ± 1.6 kg/m3
298.15 K, 24420 kPa
  mass density: 717.18 ± 1.6 kg/m3
298.15 K, 26450 kPa
  mass density: 718.56 ± 1.7 kg/m3
298.15 K, 28470 kPa
  mass density: 719.9 ± 1.8 kg/m3
298.15 K, 29490 kPa
  mass density: 720.57 ± 1.8 kg/m3
298.15 K, 30500 kPa
  mass density: 721.22 ± 1.9 kg/m3
298.15 K, 32530 kPa
  mass density: 722.53 ± 2 kg/m3
298.15 K, 34550 kPa
  mass density: 723.82 ± 2 kg/m3
298.15 K, 36580 kPa
  mass density: 725.06 ± 2.1 kg/m3
298.15 K, 38600 kPa
  mass density: 726.32 ± 2.2 kg/m3
298.15 K, 39620 kPa
  mass density: 726.94 ± 2.2 kg/m3
308.15 K, 100 kPa
  mass density: 690.43 ± 0.63 kg/m3
308.15 K, 2130 kPa
  mass density: 692.18 ± 0.73 kg/m3
308.15 K, 4150 kPa
  mass density: 694 ± 0.82 kg/m3
308.15 K, 6180 kPa
  mass density: 695.79 ± 0.9 kg/m3
308.15 K, 8210 kPa
  mass density: 697.53 ± 0.99 kg/m3
308.15 K, 10230 kPa
  mass density: 699.24 ± 1.1 kg/m3
308.15 K, 11250 kPa
  mass density: 700.07 ± 1.1 kg/m3
308.15 K, 12260 kPa
  mass density: 700.88 ± 1.2 kg/m3
308.15 K, 14290 kPa
  mass density: 702.55 ± 1.2 kg/m3
308.15 K, 16310 kPa
  mass density: 704.13 ± 1.3 kg/m3
308.15 K, 18340 kPa
  mass density: 705.71 ± 1.4 kg/m3
308.15 K, 20370 kPa
  mass density: 707.23 ± 1.5 kg/m3
308.15 K, 22390 kPa
  mass density: 708.76 ± 1.6 kg/m3
308.15 K, 24420 kPa
  mass density: 710.22 ± 1.7 kg/m3
308.15 K, 26450 kPa
  mass density: 711.66 ± 1.8 kg/m3
308.15 K, 28470 kPa
  mass density: 713.09 ± 1.8 kg/m3
308.15 K, 29490 kPa
  mass density: 713.77 ± 1.9 kg/m3
308.15 K, 30500 kPa
  mass density: 714.47 ± 1.9 kg/m3
308.15 K, 32530 kPa
  mass density: 715.84 ± 2 kg/m3
308.15 K, 34550 kPa
  mass density: 717.18 ± 2.1 kg/m3
308.15 K, 36580 kPa
  mass density: 718.5 ± 2.2 kg/m3
308.15 K, 38600 kPa
  mass density: 719.82 ± 2.2 kg/m3
308.15 K, 39620 kPa
  mass density: 720.45 ± 2.3 kg/m3
318.15 K, 100 kPa
  mass density: 682.47 ± 0.65 kg/m3
318.15 K, 2130 kPa
  mass density: 684.48 ± 0.74 kg/m3
318.15 K, 4150 kPa
  mass density: 686.45 ± 0.83 kg/m3
318.15 K, 6180 kPa
  mass density: 688.29 ± 0.92 kg/m3
318.15 K, 8210 kPa
  mass density: 690.17 ± 1 kg/m3
318.15 K, 10230 kPa
  mass density: 691.97 ± 1.1 kg/m3
318.15 K, 11250 kPa
  mass density: 692.85 ± 1.1 kg/m3
318.15 K, 12260 kPa
  mass density: 693.77 ± 1.2 kg/m3
318.15 K, 14290 kPa
  mass density: 695.49 ± 1.3 kg/m3
318.15 K, 16310 kPa
  mass density: 697.2 ± 1.4 kg/m3
318.15 K, 18340 kPa
  mass density: 698.86 ± 1.5 kg/m3
318.15 K, 20370 kPa
  mass density: 700.47 ± 1.5 kg/m3
318.15 K, 22390 kPa
  mass density: 702.07 ± 1.6 kg/m3
318.15 K, 24420 kPa
  mass density: 703.61 ± 1.7 kg/m3
318.15 K, 26450 kPa
  mass density: 705.13 ± 1.8 kg/m3
318.15 K, 28470 kPa
  mass density: 706.66 ± 1.9 kg/m3
318.15 K, 29490 kPa
  mass density: 707.38 ± 1.9 kg/m3
318.15 K, 30500 kPa
  mass density: 708.13 ± 2 kg/m3
318.15 K, 32530 kPa
  mass density: 709.54 ± 2 kg/m3
318.15 K, 34550 kPa
  mass density: 710.96 ± 2.1 kg/m3
318.15 K, 36580 kPa
  mass density: 712.33 ± 2.2 kg/m3
318.15 K, 38600 kPa
  mass density: 713.68 ± 2.3 kg/m3
318.15 K, 39620 kPa
  mass density: 714.38 ± 2.3 kg/m3
328.15 K, 100 kPa
  mass density: 674.53 ± 0.66 kg/m3
328.15 K, 2130 kPa
  mass density: 676.49 ± 0.76 kg/m3
328.15 K, 4150 kPa
  mass density: 678.56 ± 0.85 kg/m3
328.15 K, 6180 kPa
  mass density: 680.59 ± 0.95 kg/m3
328.15 K, 8210 kPa
  mass density: 682.57 ± 1 kg/m3
328.15 K, 10230 kPa
  mass density: 684.51 ± 1.1 kg/m3
328.15 K, 11250 kPa
  mass density: 685.44 ± 1.2 kg/m3
328.15 K, 12260 kPa
  mass density: 686.38 ± 1.2 kg/m3
328.15 K, 14290 kPa
  mass density: 688.23 ± 1.3 kg/m3
328.15 K, 16310 kPa
  mass density: 690.03 ± 1.4 kg/m3
328.15 K, 18340 kPa
  mass density: 691.76 ± 1.5 kg/m3
328.15 K, 20370 kPa
  mass density: 693.5 ± 1.6 kg/m3
328.15 K, 22390 kPa
  mass density: 695.17 ± 1.7 kg/m3
328.15 K, 24420 kPa
  mass density: 696.82 ± 1.8 kg/m3
328.15 K, 26450 kPa
  mass density: 698.41 ± 1.8 kg/m3
328.15 K, 28470 kPa
  mass density: 699.98 ± 1.9 kg/m3
328.15 K, 29490 kPa
  mass density: 700.75 ± 2 kg/m3
328.15 K, 30500 kPa
  mass density: 701.53 ± 2 kg/m3
328.15 K, 32530 kPa
  mass density: 703.01 ± 2.1 kg/m3
328.15 K, 34550 kPa
  mass density: 704.5 ± 2.2 kg/m3
328.15 K, 36580 kPa
  mass density: 705.96 ± 2.2 kg/m3
328.15 K, 38600 kPa
  mass density: 707.36 ± 2.3 kg/m3
328.15 K, 39620 kPa
  mass density: 708.06 ± 2.4 kg/m3
